Key:
endometrium [1] = settings: small randomized study of progestogens; cited from earlier work
endometrium [2] = settings: prior to hysteroscopic surgery; cited from earlier work
endometrium [3] = assay: Examples 1-3: endometrial thinning with loading dose and maintenance dose; type: in vivo, women; settings: loading dose on first day, then maintenance dose for 3-6 days, any time of cycle
Procedure: Five different groups of pre-menopausal women are treated based on where there are in the menstrual cycle. Starting days (i.e., the first day of dosing) for the five groups are on Cycle Days 2-5, 6-9, 10-13, 14-17, and 18-21 for Groups 1-5, respectively.
A thin endometrium is defined as having a double-wall thickness not greater than 4 mm on transvaginal ultrasound. […] The following table summarizes the dose day and evaluation times.

[4] = postmenopausal breast cancer; cited from earlier work

SMILES	effect on endometrial thickness (endometrium [1])	other results
CC(=O)O[C@]1(C(C)=O)CC[C@H]2[C@@H]3C=C(Cl)C4=CC(=O)[C@@H]5C[C@@H]5[C@]4(C)[C@H]3CC[C@@]21C [cyproterone acetate]	significant reduction	
C#C[C@]1(O)CC[C@H]2[C@@H]3CCC4=Cc5oncc5C[C@]4(C)[C@H]3CC[C@@]21C [danazol]		endometrial thinning (endometrium [2]): satisfactory results
C#C[C@]1(O)CC[C@H]2[C@@H]3CCC4=CC(=O)CC[C@@H]4[C@H]3CC[C@@]21C [norethisterone]	no effect	
CC(=O)O[C@]1(C(C)=O)CC[C@H]2[C@@H]3C[C@H](C)C4=CC(=O)CC[C@]4(C)[C@H]3CC[C@@]21C [medroxyprogesterone acetate]	no effect	
CC(C)(C#N)c1cc(Cn2cncn2)cc(C(C)(C)C#N)c1 [anastrozole]		endometrial thinning prior to ablation (endometrium [3]): able to maintain a thin endometrium or to induce adequate thinning
CCC1(c2ccc(N)cc2)CCC(=O)NC1=O (stereo not drawn) [aminoglutethimide]		patients stopping treatment because of side effects (lethargy, rashes, nausea, fever) [4]: 8-15%

Reference: patent US20100087407A1, “USE OF AROMATASE INHIBITORS” (priority 2006, published 2010)
